Laboratory results from the NIST ThermoML archive (doi:10.1021/acs.jced.7b00704).
Numbers after ± are expanded uncertainties.

How the values were obtained:
[1] = Liquid, Ebulliometric method (Recirculating still)
[2] = refractive index (Na D-line) (dimensionless); conditions: Liquid, Standard Abbe refractometry

Compound | vapor or sublimation pressure ([1]; 360.73 K) | refractive index ([2]; 293.15 K, 93 kPa) | refractive index ([2]; 298.15 K, 101.33 kPa) | vapor or sublimation pressure ([1]; 347.58 K) | vapor or sublimation pressure ([1]; 327.63 K) | vapor or sublimation pressure ([1]; 372.05 K)
COC(=O)OC [dimethyl carbonate] | 93.13 ± 0.96 kPa | 1.3688 ± 0.0004 | 1.3664 ± 0.00042 |  |  | 
CCOC(C)=O [ethyl acetate] |  | 1.3724 ± 0.0004 | 1.3698 ± 0.00038 | 93.13 ± 0.95 kPa |  | 
COC(C)=O [methyl ethanoate] |  | 1.3615 ± 0.0004 | 1.35872 ± 0.00042 |  | 93.13 ± 0.96 kPa | 
CCCOC(C)=O [propyl ethanoate] |  | 1.3843 ± 0.0005 | 1.38181 ± 0.00054 |  |  | 93.13 ± 0.97 kPa
